Paper PMC11993615, “Design, synthesis and optimization of TarO inhibitors as multifunctional antibiotics against Methicillin-resistant Staphylococcus aureus” (npj Antimicrobials and Resistance, 2025)
Converted amounts (≈) assume the structure as drawn.

How the values were obtained:
[1] = system: S.aureus USA300 LAC wild-type; experiment: Antagonistic (chemical suppression) test of 18a against Targocil, checkerboard
[2] = system: ΔtarO strain of USA300 LAC; experiment: Chemical suppression test, Targocil on tarO null mutant control; settings: Targocil 2–64 μg/mL
[3] = system: TntarO::vraXpro-lux (S.aureus JE2 tarO mutant); experiment: vraXpro-lux induction and growth of tarO mutant (target verification); type: cell-based, Staphylococcus aureus; settings: different concentrations
Procedure: Second, the vraXpro-lux induction and growth inhibition experiment were conducted using a tarO mutant, as we assumed that a compound with other targets may still change the growth characteristic and the vraXpro-lux expression pattern of the mutant, whereas a TarO inhibitor would not, as its target is absent in the mutant.
Generally, JE2::vraXpro-lux and its isogenic ^TntarO::vraXpro-lux reporter strains were used for preliminary screening and cellular-based target verification. JE2::vraXpro-lux was obtained by transduction of the vraXpro-lux fusions from RN4220 strain to JE2, a plasmid-cured derivative of the community-associated MRSA strain USA300 LAC. ^TntarO::vraXpro-lux was further obtained by transposon insertion mutation of the tarO gene using a mariner-based transposon in JE2 reporter strain[41]. […] Then, 200 μL aliquot of the samples were distributed to a 96-well black-wall clear-bottom plate (Costar, Corning Incorporated), and 45 μL saxoline was added to each well to prevent the evaporation of the medium. vraXpro-lux expression level and the growth curve were measured using a Cytation 1 Multi-Mode Microplate Reader (Biotek) at different time points as indicated.

USA300 LAC [4] = experiment: MIC determination, broth microdilution; settings: Staphylococcus aureus
[5] = Solubility of compounds in water (HPLC); type: physicochemical; settings: pure water
Procedure: Weigh the sample in a 10 mL volumetric flask, dissolve in methanol up to the mark to obtain a reference solution of known concentration. Inject 5 μL into the HPLC, detect peak area at 254 nm wavelength. Prepare supersaturated aqueous solution of the sample, filter and inject 5 μL into the HPLC, detect peak area at 254 nm wavelength. The solubility of the compound in water […] is calculated according to the following formula: CS = CA × AB/AA (CA represents the concentration of the reference solution, AA represents the peak area of the reference solution, and AB represents the saturated peak area of the sample).

USA400 MW2 [6] = experiment: Checkerboard MIC assay with oxacillin; type: cell-based, Staphylococcus aureus; settings: for FICI / Sensitization fold / Maximum sensitization concentration / Minimum sensitization concentration: USA400 MW2/oxacillin; for Maximum sensitization concentration / Minimum sensitization concentration: test range 0.03–32 μg/mL; for MIC of β-lactam, combined: USA400 MW2
Procedure: (§1) In the checkerboard assay, concentrations of antibiotics, oxacillin and imipenem, and TarO inhibitors were simultaneously varied across columns and the rows, respectively. […] The range of each compound chosen for the checkerboard assay was according to their MIC value. […] For each clear well observed on the checkerboard MIC plate, the fractional inhibitory concentration index (FICI) was calculated as follows: FICI = FIC (inhibitor) + FIC (antibiotic) = MIC inhibitor in combination/ MIC inhibitor alone + MIC antibiotic in combination/MIC antibiotic alone. FIC = Fractional Inhibitory Concentration. A FICI value of < 0.5 indicates synergy, a value between 0.5 and 2 indicates additivity or indifference, and a value > 2 indicates antagonism.

USA300 LAC [7] = experiment: Checkerboard MIC assay with oxacillin; type: cell-based, Staphylococcus aureus; settings: USA300 LAC/oxacillin; for Minimum sensitization concentration: test range 0.03–32 μg/mL
Procedure: as §1

HS663 [8] = experiment: MIC determination, broth microdilution
USA400 MW2 [9] = experiment: MIC determination, broth microdilution; settings: Staphylococcus aureus
[10] = Cytotoxicity assay (Sulforhodamine B); type: cell-based; settings: human
Procedure: The cytotoxicity was detected by Sulforhodamine B method. The human pancreatic cancer cell line Capan-1, human colon cancer cell line HCT-116 and human lung adenocarcinoma cell line NCI-H1373 were purchased from American Type Culture Collection (ATCC; Manassas, VA) and inoculated into 96-well plates in triplicate. The cells were treated with different concentrations of compounds in humidified incubator containing 5% CO2 for 72 h when they reached 70%-80% confluence. Vincristine was added as a positive control. Then, SRB staining agent was added and microplate analyzer was used to read the absorbance at 450 nm wavelength. The cytotoxicity of each compound is expressed as the concentration of the compound that reduces cell viability to 50% (IC50). The optical density (OD) at a wavelength of 450 nm was measured using an SpectraMax 190 Microplate Reader (Molecular Devices; USA). The IC50 value was calculated by the Logit method using Graphpad Prism 9.1.

TarO = TarO (Staphylococcus aureus, UniProt Q2G060); type: cell-based; settings: for IC50: relative inhibition rate against the wild-type strain, OD600 at 20 h, n.a. = IC50 cannot be calculated within the test range
HS663 [11] = experiment: Checkerboard MIC assay with imipenem; type: cell-based, Staphylococcus aureus; settings: for FICI / Sensitization fold / Maximum sensitization concentration / Minimum sensitization concentration: HS663/imipenem; for Maximum sensitization concentration / Minimum sensitization concentration: test range 0.03–32 μg/mL; for MIC of β-lactam, combined: HS663
Procedure: as §1

[12] = system: S.aureus USA300 LAC biofilm; experiment: Static biofilm inhibition assay (crystal violet); type: cell-based, Staphylococcus aureus; settings: USA300 LAC
[13] = Preliminary liver microsomal stability testing; type: in vitro ADME, Mouse
Procedure: 6. Supplementary Ta b l e 3: Preliminary liver microsomal stability testing of Ta r O
Compounds Species T1/2 Clint In Vitro MF […]
a MF: metabolic bioavailability.
Microsomes in 0.1 M TRIS buffer pH 7.4 (final concentration 0.33 mg/mL), co- factor MgCl2 (final concentration 5 mM) and tested compound (final concentration 0.1 μM, co-solvent 0.01% DMSO and 0.005% Bovin serum albumin BSA) were incubated at 37°C for 10 min. The reaction was started by the addition of NADPH (final concentration 1 mM). Aliquots were sampled at 0, 5, 15, 30 and 60 min respectively and methanol (cold in wet ice) was added to terminate the reaction.
After centrifugation (4000rpm,5 min), samples were then analyzed by LC- MS/MS.

MRSA HS663 strain = experiment: Galleria mellonella larva infection assay; settings: for survival time of infected larvae: HS663 1.5 × 10^6 CFU
Procedure: Galleria mellonella infection experiment was performed according to previous methods[24]. Generally, HS663 was grown overnight in TSB (Tryptone Soya Broth) at 37 °C with shaking at 250 rpm. Then cultures were diluted 1:100 into 10 ml fresh TSB, and were further grown for 3 h. The bacterial cells were harvested by centrifugation at 5700 g for 5 min, washed twice with sterilized PBS, and suspended with PBS. Galleria mellonella larvae (Tianjin HuiYuDe Biotechnological Co., Ltd.) about 300 mg was selected to infect. […] After infection for 1 h, the larvae were administrated with compounds or solvent only. Then the Galleria mellonella larvae was cultivated at 37 °C and survival rates were recorded every 12 h for 5 days to analyze the mortality data.

[14] = at maximum sensitization concentration
[15] = at minimum sensitization concentration
[16] = oxacillin with TarO inhibitor at maximum sensitization concentration
[17] = oxacillin with TarO inhibitor at minimum sensitization concentration
[18] = imipenem with TarO inhibitor at maximum sensitization concentration
[19] = imipenem with TarO inhibitor at minimum sensitization concentration

Structure (SMILES) | vraXpro-lux expression pattern and growth characteristics of the tarO mutant [3] | MIC (USA300 LAC [4]) [µg/mL] | Sensitization fold (USA400 MW2 [6]; [14]) | FICI (USA400 MW2 [6]; [15]) | Sensitization fold (USA400 MW2 [6]; [15]) | Maximum sensitization concentration (USA400 MW2 [6]) [µg/mL] | Minimum sensitization concentration (USA400 MW2 [6]) [µg/mL] | MIC of β-lactam, combined (USA400 MW2 [6]; [16]) [µg/mL] | MIC of β-lactam, combined (USA400 MW2 [6]; [17]) [µg/mL] | FICI (USA300 LAC [7]; [14]) | Sensitization fold (USA300 LAC [7]; [14]) | FICI (USA300 LAC [7]; [15]) | Sensitization fold (USA300 LAC [7]; [15]) | Minimum sensitization concentration (USA300 LAC [7]) [µg/mL] | MIC (HS663 [8]; Staphylococcus aureus) [µg/mL] | MIC (USA400 MW2 [9]) [µg/mL] | IC50 (TarO) [µM] | FICI (HS663 [11]; [14]) | Sensitization fold (HS663 [11]; [14]) | FICI (HS663 [11]; [15]) | also measured
CCN(CC)c1nc2c(S(=O)(=O)c3ccc(Cl)cc3)nnn2c2cc(OC)c(OC)cc12 [Targocil, reference compound] | – | – | – | – | – | – | – | – | – | – | – | – | – | – | – | – | – | – | – | – | MIC ([1]; Targocil alone, WT S.aureus): about 8 μg/mL; lethal effect on the tarO mutant [2]: did not exhibit a lethal effect
C[C@H]1[C@@H](c2cc(C(F)(F)F)cc(C(F)(F)F)c2)OC(=O)N1C(=O)Cc1cccc2ccccc12 [Tarocin A, reference compound] | neither Tarocin A nor 18a further changed the vraXpro-lux expression pattern as well as the growth characteristics of the mutant | > 256 | 16 | <0.51 | 2 | 0.5 | 0.06 | 1 | 8 | <0.26 | 4 | <0.51 | 2 | 0.06 | > 256 | > 256 | 9.7 | <0.14 | 8 | <0.51 | water solubility [5]: almost insoluble in pure water; FICI (USA400 MW2 [6]; [14]): <0.07; IC50 at 72 h ([10]; Capan-1 cells (human pancreatic cancer cell line), Capan-1, 72 h): > 20 µM; IC50 at 72 h ([10]; HCT-116 cells (human colon cancer cell line), HCT-116, 72 h): > 20 µM; IC50 at 72 h ([10]; NCI-H1373 cells (human lung adenocarcinoma cell line), NCI-H1373, 72 h): > 20 µM; induction of vraXpro-lux expression (TarO; MRSA USA300 LAC strain, exponential growth phase): concentration-dependent manner; bacterial growth density (OD600) (TarO; post-exponential growth phase): effectively reduced the bacterial growth density; Sensitization fold (HS663 [11]; [15]): 2; Maximum sensitization concentration (HS663 [11]): 2 µg/mL; Minimum sensitization concentration (HS663 [11]): 0.25 µg/mL; MIC of β-lactam, combined (HS663 [11]; [18]): 8 µg/mL; MIC of β-lactam, combined (HS663 [11]; [19]): 32 µg/mL; static biofilm formation ([12]; tested concentration range 0.03 to 32 μg/mL): did not reduce static biofilm formation
C[C@H]1[C@@H](c2cc(C(F)(F)F)cc(C(F)(F)F)c2)OC(=O)N1C(=O)CCn1ccc(=O)c2cccnc21 [Compound 18a] | neither Tarocin A nor 18a further changed the vraXpro-lux expression pattern as well as the growth characteristics of the mutant | > 256 | 64 | <0.26 | 4 | 32 | 0.03 | 0.25 | 4 | <0.13 | 256 | <0.13 | 8 | 0.03 | > 256 | > 256 | 3.66 | <0.15 | 8 | <0.51 | Clint In Vitro ([13]; Mouse liver microsomes): 3051 mL/min/gprot; Comments (metabolic stability) ([13]; Mouse liver microsomes): poor and did not achieve the desired result; half-life at 0.1 μM ([13]; pH 7.4, Mouse liver microsomes 0.33 mg/mL, 0.1 μM compound): 41.4 s; concentration (as low as) alleviating the growth inhibition of Targocil ([1]; WT strain, 18a range 0.25–128 μg/mL): 0.25 µg/mL; solubility [5]: 20 µg/mL (≈ 39 µM); extension of survival time (MRSA HS663 strain; 16 mg/kg, higher infection dose, HS663 2.0 × 10^6 CFU): even higher than that of 20 mg/kg of imipenem treating group; survival rate of infected larvae, combination (MRSA HS663 strain; 18a 16 mg/kg in combination with 20 mg/kg imipenem, compared with imipenem alone, 2.0 × 10^6 CFU): a further improvement in the survival rate; survival time of infected larvae (MRSA HS663 strain; single administration 8 mg/kg): significantly extended the survival time; survival time of infected larvae (MRSA HS663 strain; single administration 16 mg/kg): significantly extended the survival time; MIC (HS663 [8]; HS663, compound alone): exceeds 256 μg/mL; IC50 at 72 h ([10]; Capan-1, 72 h): > 20 µM; IC50 at 72 h ([10]; HCT-116, 72 h): > 20 µM; IC50 at 72 h ([10]; NCI-H1373, 72 h): > 20 µM; Sensitization fold (HS663 [11]; [15]): 2; Maximum sensitization concentration (HS663 [11]): 4 µg/mL; Minimum sensitization concentration (HS663 [11]): 0.03 µg/mL; MIC of β-lactam, combined (HS663 [11]; [18]): 8 µg/mL; MIC of β-lactam, combined (HS663 [11]; [19]): 32 µg/mL; concentration (as low as) significantly reducing biofilm formation ([12]; 24 h static culture): 8 µg/mL
